We go through 54 molecules from patent US11236084B2, “Substituted azaindoline derivatives as NIK inhibitors” (Janssen Pharmaceutica NV, priority 2017, dated 2022).

Molecules are shown by their SMILES. Like-named read-outs stand apart in the source and are kept apart here.

A word on the IC50: it is the concentration that gives 50% inhibition.

The experiment concerns the target recombinant human NF-kappaB-inducing kinase (NIK/MAP3K14) (Homo sapiens, UniProt Q99558). Kind of experiment: Biological Assay B: inhibition of auto-phosphorylation of recombinant human NIK/MAP3K14 (AlphaScreen), performed at 2 locations. It is filed as biochemical. As to conditions: AlphaScreen auto-phosphorylation, averaged values. The method, then: Inhibition of Auto-Phosphorylation of Recombinant Human NF-kappaB-Inducing Kinase (NIK/MAP3K14) Activity (AlphaScreen®)
NIK/MAP3K14 auto-phosphorylation activity was measured using the AlphaScreen® (αscreen) format (Perkin Elmer). All compounds tested were dissolved in dimethyl sulfoxide (DMSO) and further dilutions were made in assay buffer. Final DMSO concentration was 1% (v/v) in assays. Assay buffer was 50 mM Tris pH 7.5 containing 1 mM EGTA (ethylene glycol tetraacetic acid), 1 mM DTT (dithiothreitol), 0.1 mM Na3VO4, 5 mM MgCl2, 0.01% Tween® 20. Assays were carried out in 384 well Alphaplates (Perkin Elmer). Incubations consisted of compound, 25 microM Adenosine-5′-triphosphate (ATP), and 0.2 nM NIK/MAP3K14. Incubations were initiated by addition of GST-tagged NIK/MAP3K14 enzyme, carried out for 1 h at 25° C. and terminated by addition of stop buffer containing anti-phospho-IKK Ser176/180 antibody. Protein A Acceptor and Glutathione-Donor beads were added before reading using an EnVision® Multilabel Plate Reader (Perkin Elmer). Signal obtained in the wells containing blank samples was subtracted from all other wells and IC50's were determined by fitting a sigmoidal curve to % inhibition of control versus Log10 compound concentration.
Assay B was performed at 2 different locations.
Data for the compounds of the invention in the above assays are provided in Table A (the values in Table are averaged values over all measurements on all batches of a compound; values as IC50 (nM)). (‘n.c.’ means not calculated: ‘Co.’ means compound)
On the technique in general: In Alpha technology, singlet oxygen from a donor bead excites a nearby acceptor bead.

Setting [1] is: location 2, read-out: Assay B location 2 IC50.
[2] abbreviates: location 1, read-out: Assay B location 1 IC50.

Chain of recombinant human NF-kappaB-inducing kinase (NIK/MAP3K14) (Q99558 whole entry): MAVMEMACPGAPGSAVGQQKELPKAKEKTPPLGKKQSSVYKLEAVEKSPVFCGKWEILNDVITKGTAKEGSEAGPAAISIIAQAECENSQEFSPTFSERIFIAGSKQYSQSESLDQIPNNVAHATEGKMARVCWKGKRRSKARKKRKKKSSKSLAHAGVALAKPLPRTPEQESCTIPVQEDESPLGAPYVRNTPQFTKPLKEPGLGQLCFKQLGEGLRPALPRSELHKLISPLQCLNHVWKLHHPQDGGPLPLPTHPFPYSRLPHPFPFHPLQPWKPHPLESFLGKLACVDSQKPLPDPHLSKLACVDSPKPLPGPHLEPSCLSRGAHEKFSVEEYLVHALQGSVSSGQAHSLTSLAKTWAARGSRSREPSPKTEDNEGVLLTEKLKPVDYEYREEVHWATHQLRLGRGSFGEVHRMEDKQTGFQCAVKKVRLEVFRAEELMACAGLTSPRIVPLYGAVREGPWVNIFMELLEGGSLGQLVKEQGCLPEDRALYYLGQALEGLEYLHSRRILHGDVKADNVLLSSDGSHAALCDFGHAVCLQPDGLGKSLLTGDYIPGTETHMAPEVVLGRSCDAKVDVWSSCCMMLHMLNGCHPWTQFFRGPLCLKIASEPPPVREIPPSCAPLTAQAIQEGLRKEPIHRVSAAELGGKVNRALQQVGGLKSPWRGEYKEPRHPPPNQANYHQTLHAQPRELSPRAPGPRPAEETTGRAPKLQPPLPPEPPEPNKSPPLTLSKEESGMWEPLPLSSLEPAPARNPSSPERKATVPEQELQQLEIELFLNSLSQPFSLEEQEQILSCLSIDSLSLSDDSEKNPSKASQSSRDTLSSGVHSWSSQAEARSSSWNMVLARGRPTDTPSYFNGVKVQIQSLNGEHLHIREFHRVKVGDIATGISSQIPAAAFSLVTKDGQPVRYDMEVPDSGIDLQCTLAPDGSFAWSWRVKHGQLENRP

On to `CCc1ccc(OC)c(Nc2nccc(-c3cnc4c(c3)C(C)(CO)CN4)n2)c1` (stereo not drawn) [Compound 206], for which the IC50 under setting [1] stood at 38 nM. The same measure, in the same setting: as for `COc1cc(-n2cncn2)ccc1Nc1nccc(-c2cnc3c(c2)C(C)(CO)CN3)n1` (stereo not drawn) [Compound 207], the figure is 16.6 nM; as for `Cc1ccc(C#N)cc1Nc1nccc(-c2cnc3c(c2)C(C)(CO)CN3)n1` (stereo not drawn) [Compound 208], 5 nM; as for `COc1ccc(C(C)C)cc1Nc1nccc(-c2cnc3c(c2)C(C)(CO)CN3)n1` (stereo not drawn) [Compound 209], 110 nM. Same read-out and setting: with `Cc1ccc(OC(F)(F)F)cc1Nc1nccc(-c2cnc3c(c2)C(C)(CO)CN3)n1` (stereo not drawn) [Compound 210] the figure was 30.9 nM; with `CC(=O)Nc1ccc(C)c(Nc2nccc(-c3cnc4c(c3)C(C)(CO)CN4)n2)c1` (stereo not drawn) [Compound 211], 49 nM. Regarding `Cc1cccc(Nc2nccc(-c3cnc4c(c3)C(C)(CO)CN4)n2)c1C` (stereo not drawn) [Compound 212], the IC50 under setting [1] was found to be 22.4 nM. On the same count and under the same terms, as for `COc1cc(N2CCC(OC)CC2)ccc1Nc1nccc(-c2cnc3c(c2)C(C)(CO)CN3)n1` (stereo not drawn) [Compound 213], the figure is 13.8 nM; as for `COc1cccc(Nc2nccc(-c3cnc4c(c3)C(C)(CO)CN4)n2)c1C` (stereo not drawn) [Compound 214], 12 nM. Take `COc1cc(N2CCC(C#N)CC2)ccc1Nc1nccc(-c2cnc3c(c2)C(C)(CO)CN3)n1` (stereo not drawn) [Compound 215]: under setting [1], the IC50 is 12.9 nM. Still for that read-out and setting: with `Cc1cc(N2CCOCC2)ccc1Nc1nccc(-c2cnc3c(c2)C(C)(CO)CN3)n1` (stereo not drawn) [Compound 216] the figure was 47.9 nM; with `COc1cc(N2CCC(F)(F)CC2)ccc1Nc1nccc(-c2cnc3c(c2)C(C)(CO)CN3)n1` (stereo not drawn) [Compound 217], 27.5 nM; with `COc1cc(OCCN2CCOCC2)ccc1Nc1nccc(-c2cnc3c(c2)C(C)(CO)CN3)n1` (stereo not drawn) [Compound 218], 15.1 nM. As for `CNC(=O)c1ccc(C)c(Nc2nccc(-c3cnc4c(c3)C(C)(CO)CN4)n2)c1` (stereo not drawn) [Compound 219], the IC50 under setting [1] was 61.7 nM. As to `COc1ccc(C)c(Nc2nccc(-c3cnc4c(c3)C(C)(CO)CN4)n2)c1` (stereo not drawn) [Compound 220], the IC50 under setting [1] was 2.5 nM.

`COc1ccc(NC(C)=O)cc1Nc1nccc(-c2cnc3c(c2)C(C)(CO)CN3)n1` (stereo not drawn) [Compound 221]: the IC50 under setting [1] is 10.5 nM. `COc1ccc(Cl)c(Nc2nccc(-c3cnc4c(c3)C(C)(CO)CN4)n2)c1` (stereo not drawn) [Compound 222]: under setting [1], the IC50 turned out to be 2.6 nM.

As for `Cc1c(C#N)cccc1Nc1nccc(-c2cnc3c(c2)C(C)(CO)CN3)n1` (stereo not drawn) [Compound 223], the half-inhibitory concentration (IC50) under setting [1] stood at 63.1 nM. Still for that read-out and setting: with `Cc1c(Cl)cccc1Nc1nccc(-c2cnc3c(c2)C(C)(CO)CN3)n1` (stereo not drawn) [Compound 224] the figure was 38 nM. For the molecule `COc1cccc(Nc2nccc(-c3cnc4c(c3)C(C)(CO)CN4)n2)c1Cl` (stereo not drawn) [Compound 225], the half-inhibitory concentration (IC50) runs as follows: under setting [2], 13.2 nM; under setting [1], 10.2 nM.

In the case of `COc1cc(C#N)c(C)c(Nc2nccc(-c3cnc4c(c3)C(C)(CO)CN4)n2)c1` (stereo not drawn) [Compound 226], the IC50 under setting [2] worked out at 7.4 nM and the IC50 under setting [1] was determined as 4.1 nM.

As to `CC1(CO)CNc2ncc(-c3ccnc(Nc4cccc(Cl)c4Cl)n3)cc21` (stereo not drawn) [Compound 227], the IC50 came to 72.4 nM under setting [2] and 41.7 nM under setting [1]. Take `COc1cc(OC2CCN(C)CC2)ccc1Nc1nccc(-c2cnc3c(c2)C(C)(CO)CN3)n1` (stereo not drawn) [Compound 228]: under setting [1], the IC50 is 26.3 nM. Take `COc1cc(OC2CCN(C)C2)ccc1Nc1nccc(-c2cnc3c(c2)C(C)(CO)CN3)n1` (stereo not drawn) [Compound 229]: the IC50 reads like this: under setting [2], 45.7 nM; under setting [1], 37.2 nM. For `COc1cc(Cl)c(C)c(Nc2nccc(-c3cnc4c(c3)C(C)(CO)CN4)n2)c1` (stereo not drawn) [Compound 230] the same measures were 7.4 nM and 6.6 nM. For `CCN1CCC(Oc2ccc(Nc3nccc(-c4cnc5c(c4)C(C)(CO)CN5)n3)c(OC)c2)C1` (stereo not drawn) [Compound 233] the same measures were 32.4 nM and 33.1 nM. On to `[2H]C([2H])([2H])c1ccccc1Nc1nccc(-c2cnc3c(c2)C(C)(CO)CN3)n1` (stereo not drawn) [Compound 234], for which the IC50 was 61.7 nM under setting [2] and 38.9 nM under setting [1].

Take `COc1ccc(N2CCN(C)CC2)cc1Nc1nccc(-c2cnc3c(c2)C(C)(CO)CN3)n1` (stereo not drawn) [Compound 238]: the half-maximal inhibitory concentration (IC50) was approximately 6610 nM under setting [2] and more than 10000 nM under setting [1]. For `COc1ccc(-c2cnn(C)c2)cc1Nc1nccc(-c2cnc3c(c2)C(C)(CO)CN3)n1` (stereo not drawn) [Compound 239] the same measures were 389 nM and 355 nM. For `COc1ccc(N2CCOCC2)cc1Nc1nccc(-c2cnc3c(c2)C(C)(CO)CN3)n1` (stereo not drawn) [Compound 241] the same measures were 1860 nM and approximately 3090 nM. Turning to `COc1cc(N2CC3(CCOCC3)C2)ccc1Nc1nccc(-c2cnc3c(c2)C(C)(CO)CN3)n1` (stereo not drawn) [Compound 242], the IC50 stood at 35.5 nM under setting [2] and 13.8 nM under setting [1]. Consider `COc1cc(N2CCOCC2)c(F)cc1Nc1nccc(-c2cnc3c(c2)C(C)(CO)CN3)n1` (stereo not drawn) [Compound 243], for which the IC50 under setting [1] is 10 nM. For the molecule `COc1cc(N2CCC(C#N)CC2)c(Cl)cc1Nc1nccc(-c2cnc3c(c2)C(C)(CO)CN3)n1` (stereo not drawn) [Compound 245], the IC50 under setting [1] is 3.6 nM. Consider `CC1(CO)CNc2ncc(-c3ccnc(Nc4ccccc4OC4CCOCC4)n3)cc21` (stereo not drawn) [Compound 247], for which the IC50 runs as follows: under setting [2], 38 nM; under setting [1], 22.4 nM.

As to `COc1cccc(F)c1Nc1nccc(-c2cnc3c(c2)C(C)(CO)CN3)n1` (stereo not drawn) [Compound 250], the IC50 by setting is: under setting [2], 912 nM; under setting [1], 1230 nM. For `COc1cccc(Cl)c1Nc1nccc(-c2cnc3c(c2)C(C)(CO)CN3)n1` (stereo not drawn) [Compound 251] the same measures were more than 10000 nM and 6760 nM.

In the case of `COCCCN(C)c1cc(OC)c(Nc2nccc(-c3cnc4c(c3)C(C)(CO)CN4)n2)cc1Cl` (stereo not drawn) [Compound 252], under setting [1], the IC50 was determined as 7.4 nM. `CCN1CCN(c2cc(OC)c(Nc3nccc(-c4cnc5c(c4)C(C)(CO)CN5)n3)cc2Cl)CC1` (stereo not drawn) [Compound 268]: the IC50 was found to be 4.5 nM under setting [2] and 0.7 nM under setting [1]. Consider `COc1cc(N2CC(OC)C2)c(F)cc1Nc1nccc(-c2cnc3c(c2)C(C)(CO)CN3)n1` (stereo not drawn) [Compound 270], for which the IC50 runs as follows: under setting [2], 21.4 nM; under setting [1], 5.8 nM.

As to `COc1cc(N2CCN(C)CC2)c(F)cc1Nc1nccc(-c2cnc3c(c2)C(C)(CO)CN3)n1` (stereo not drawn) [Compound 271], the IC50 under setting [2] worked out at 10.2 nM and the IC50 under setting [1] was 2.6 nM. As for `CCN1CCN(c2cc(OC)c(Nc3nccc(-c4cnc5c(c4)C(C)(CO)CN5)n3)cc2F)CC1` (stereo not drawn) [Compound 275], the IC50 under setting [2] was 4 nM and the IC50 under setting [1] amounted to 2.6 nM.

As to `COc1cc(N2CCC(N(C)C)C2)c(Cl)cc1Nc1nccc(-c2cnc3c(c2)C(C)(CO)CN3)n1` (stereo not drawn) [Compound 278], the IC50 under setting [2] came out at 4.7 nM and the IC50 under setting [1] was found to be 1 nM.

With `CCN1CCN(c2cc(OC)c(Nc3nccc(-c4cnc5c(c4)C(C)(CO)CN5)n3)cc2C#N)CC1` (stereo not drawn) [Compound 279], the IC50 under setting [1] turned out to be 2.7 nM. As for `COc1cc(N2CCN(C)CC2)c(C#N)cc1Nc1nccc(-c2cnc3c(c2)C(C)(CO)CN3)n1` (stereo not drawn) [Compound 280], the IC50 by setting is: under setting [2], 6.9 nM; under setting [1], 2.5 nM.

On to `Cc1cc(N2CC3(CCOCC3)C2)c(F)cc1Nc1nccc(-c2cnc3c(c2)C(C)(CO)CN3)n1` (stereo not drawn) [Compound 281], for which the IC50 under setting [2] was found to be 15.9 nM and the IC50 under setting [1] worked out at 3 nM.

For `COc1cc(N2CCOCC2)c(F)cc1Nc1nccc(-c2cnc3c(c2)C(C)(C)CN3)n1` [Compound 282], the IC50 by setting is: under setting [2], 77.6 nM; under setting [1], 13.8 nM. For `COc1cc(OC2CCN(C)CC2)c(F)cc1Nc1nccc(-c2cnc3c(c2)C(C)(CO)CN3)n1` (stereo not drawn) [Compound 283] the same measures were 5.3 nM and 2.8 nM. As for `COc1cc(N2CC3(CCOC3)C2)c(Cl)cc1Nc1nccc(-c2cnc3c(c2)C(C)(CO)CN3)n1` (stereo not drawn) [Compound 284], the IC50 came out at 7.4 nM under setting [2] and 1.1 nM under setting [1]. With `COc1cc(N2CCC(OC)C2)c(Cl)cc1Nc1nccc(-c2cnc3c(c2)C(C)(CO)CN3)n1` (stereo not drawn) [Compound 285], the IC50 reads like this: under setting [2], 7.8 nM; under setting [1], 1.8 nM. For `COc1cc(N2CC(OC)C2)c(Cl)cc1Nc1nccc(-c2cnc3c(c2)C(C)(CO)CN3)n1` (stereo not drawn) [Compound 287] the same measures were 3.9 nM and 1.3 nM. For `COc1cc(N2CC(N(C)C)C2)c(Cl)cc1Nc1nccc(-c2cnc3c(c2)C(C)(CO)CN3)n1` (stereo not drawn) [Compound 289] the same measures were 3.6 nM and 1.2 nM. For `COc1cc(C(=O)N2CCC(OC)C2)c(Cl)cc1Nc1nccc(-c2cnc3c(c2)C(C)(CO)CN3)n1` (stereo not drawn) [Compound 290] the same measures were 3.1 nM and 1.4 nM. Regarding `COc1cc(C(=O)N2CCC(OC)C2)c(Cl)cc1Nc1nccc(-c2cnc3c(c2)C(C)(C)CN3)n1` (stereo not drawn) [Compound 292], the IC50 was found to be 4.3 nM under setting [2] and 1.6 nM under setting [1]. Turning to `COc1cc(N2CCC2)c(Cl)cc1Nc1nccc(-c2cnc3c(c2)C(C)(CO)CN3)n1` (stereo not drawn) [Compound 294], the IC50 under setting [2] is 12 nM and the IC50 under setting [1] was found to be 2.3 nM.
